Source: patent publication US20090246293A1 (priority 2008, published 2009)
Like-named read-outs stand apart in the source and are kept apart here.

Assays:
[1] = format: in vivo; conditions: mancozeb:fluazinam 1:1, mancozeb:dimethomorph 2:1, Formul. I/II at 100 ppm, untreated check 95%
[2] = tested on: Pseudoperonospora cubensis (PSPECU); conditions: in vivo
[3] = tested on: Phytophthora infestans (PHYTIN); format: in vivo; conditions: fungicide with Formulation I at 100 ppm
[4] = tested on: Pseudoperonospora cubensis; test: Drop-band treatment of cucumber leaves, then spray inoculation with zoospores (Examples 1-3); format: in vivo
Experimental: The following examples were carried out on greenhouse and growth chamber experiments on cucumber plants. The cucumber plants were grown from seed in soil-free medium mix (Metro-Mix 360®) and maintained in a glasshouse with supplementary light sources to provide a 16 hour photoperiod at 24-29° C. until the plants had produced 1-2 true leaves. Plants were then trimmed to 1 true leaf, approximately 8 cm across by removing any additional leaves.
Referring below to Table 1, Dithane M45 and Dithane OS are standard commercial formulations. Isovaleraldehyde loaded onto PergoPak was prepared using the following procedure: a mixture of 1.35 g of PergoPak M (polyurea), 0.15 g of isovaleraldehyde and 8 mL of ether was stirred at room temperature for 10 min. The mixture was then concentrated by rotatory evaporation at room temperature under a slight vacuum to provide a solid that was air dried for an hour at room temperature and then bottled. All treatments were prepared by adding the appropriate amount of each treatment to distilled water to give the desired concentration of active ingredient. Dithane® M45 suspensions were initially prepared via serial dilution. Mancozeb/isovaleraldehyde solutions were prepared by adding a prepared isovaleraldehyde solution to a prepared mancozeb suspension. All solutions were vortexed and sonicated prior to treatment application to ensure that they were homogenous.
A sporangial suspension of Pseudoperonospora cubensis was made by collecting leaves with freshly sporulating lesions and washing them in distilled water, which was made up of equal volumes of chilled (4° C.) and tap distilled water (21° C.). The suspension was then left on the lab bench for 2 hours to allow the release of zoospores from the sporangia. After 2 hours the suspension was filtered through filter paper (“Whatman”, 12.5 cm, grade 113V) to remove any remaining sporangia and mycelial fragments. The zoospore concentration was determined and then adjusted to the desired concentration with distilled water.
For each example described below, an area 5 cm wide by 1 cm deep was initially marked on each cucumber leaf by placing a mark in each corner of the area. This was repeated on four separate plants to give four replicates for each treatment. Ten 15 microlitre drops were then applied to each leaf in two 5 drop bands (1 cm between each drop) and allowed to dry overnight. Subsequently a zoospore suspension of Pseudoperonospora cubensis (30,000 zoospores/mL) was sprayed with a hand-atomiser to the entire leaf until run-off. Plants were placed in a dew room (22° C. and 99% RH) for 24 hours then maintained in a growth room with supplementary light sources to provide a 14 hour photoperiod at 18° C. and 70% RH until disease assessment.
Assessment of the effectiveness of the treatment was done by visual infection within the banded area. The banded area was evaluated on a percentage scale (with 0% representing no infection and 100% representing infection of the entire area) after 5-7 days.

[5] = tested on: Plasmopara viticola (PLASVI); format: in vivo; conditions: fungicide with Formulation I at 100 ppm

## mancozeb
[1]; 1.6 ppm mancozeb
  Percent disease: 71%
[1]; 3.1 ppm mancozeb
  Percent disease: 79%
[2]
  effect of Formulation I on the effectiveness of fungicides, PSPECU: xx (key: x: 0-20% reduction in percent disease; xx: 21-35% reduction in percent disease; xxx: 36-50% reduction in percent disease; xxxx: >50% reduction in percent disease)
[3]; Table 18
  Reduction in percent disease PHYTIN: x (0-20% reduction in percent disease)
[3]; Table 19
  Reduction in percent disease PHYTIN: xxx (36-50% reduction in percent disease)
[3]; Table 20
  effect of Formulation I on the effectiveness of fungicides, PHYTIN: xx (21-35% reduction in percent disease)
[4]; mancozeb 10 ppm (Dithane 60 OS) alone, 5 days after application
  Percent infection of Pseudoperonospora cubensis on cucumbers: 31%
[4]; mancozeb 10 ppm (Dithane M45) alone, 6 days after application
  Percent infection of Pseudoperonospora cubensis on cucumbers: 31%
[4]; mancozeb 10 ppm (Dithane M45) alone, 7 days after application
  Percent infection of Pseudoperonospora cubensis on cucumbers: 30%
[4]; mancozeb 50 ppm (Dithane 60 OS) alone, 5 days after application
  Percent infection of Pseudoperonospora cubensis on cucumbers: 25%
[4]; mancozeb 50 ppm (Dithane M45) alone, 6 days after application
  Percent infection of Pseudoperonospora cubensis on cucumbers: 21%
[4]; mancozeb 50 ppm (Dithane M45) alone, 7 days after application
  Percent infection of Pseudoperonospora cubensis on cucumbers: 11%
[4]; mancozeb 100 ppm (Dithane 60 OS) alone, 5 days after application
  Percent infection of Pseudoperonospora cubensis on cucumbers: 10%
[4]; mancozeb 100 ppm (Dithane M45) alone, 6 days after application
  Percent infection of Pseudoperonospora cubensis on cucumbers: 16%
[4]; mancozeb 100 ppm (Dithane M45) alone, 7 days after application
  Percent infection of Pseudoperonospora cubensis on cucumbers: 6%
[5]; Table 18
  Reduction in percent disease PLASVI: xx (21-35% reduction in percent disease)
[5]; Table 19
  Reduction in percent disease PLASVI: xx (21-35% reduction in percent disease)
[5]; Table 20
  effect of Formulation I on the effectiveness of fungicides, PLASVI: xx (21-35% reduction in percent disease)
